The record followed here is patent US6528685B2 (Teva Pharmaceutical Industries, Ltd., priority 1994, dated 2003).

Several values for one entry are separate records, joined by “and”; a condition that tells them apart may be missing. Identical values can stand only once. Counter-ions that a name gives are not always drawn. Like-named read-outs stand apart in the source and are kept apart here.

For data set [1], the system named is rats. Nature of the data set: Maximal electroshock (MES) model, rats. The following applies: rats, oral (p.o.) administration; median effective dose.
In data set [2] the test system is mice. Description: Maximal electroshock (MES) model, mice. The following applies: mice; for MICE MES ED50: intraperitoneal (i.p.) administration. (Protection in the maximal electroshock model is a classic sign of anticonvulsant action.)
Data set [3] deals with mice. Particulars: mice i.p.
The test system of data set [4] is rats. Description: Neurotoxicity in rats, positional sense test and gait stance test. Particulars: rats p.o.; positional sense test and gait stance test. As for the experimental part:
(§1) Neurotoxicity of the claimed agents was also assessed in mice (i.p. administration) by the rotorod ataxia test and/or in rats (p.o. administration) by positional sense test and gait stance test. […] The term quantitating the neurotoxicity is the medial neurological toxic dose (TD50), was determined in the above tests.

In data set [5] the test system is mice. Description: Neurotoxicity in mice, rotorod ataxia test. Particulars: mice i.p., rotorod ataxia test. As for the experimental part: as §1
A general note: The rotarod test checks motor coordination on a turning rod.

Data set [6] concerns mongolian gerbils. Nature of the data set: Global brain ischemia in gerbils. The following applies: 3 injections, fraction of hippocampi protected from ischemia, 14 days post-ischemia. The data set is classed as in vivo, mongolian gerbil. The procedure:
Male mongolian gerbils, aged 2.5-5 months, housed 4-8 in a cage, were supplied freely with food and water and maintained at 24° C. with a 12 hour day/night cycle. […] Each artery was clamped for 5 minutes with aneurysm clips to produce global brain ischemia. The anesthesia was discontinued upon clamping. After 5 minutes the clamps were removed and the wound closed with skin clips.
For treatment, the test compound or vehicle were injected intra-peritoneally (ip) in a volume of 50 microliters of solvent per 10 g body weight. The first injection was given two minutes after clamp removal, and thereafter daily for the next 2 post-operative days (total of 3 injections).
Seven groups each of 4-8 animals were compared:
V. Ischemia—Test compound treated, one sub-group per concentration tested,
VI. Ischemia and pentobarbital (40 mg/kg) as positive control).
Analysis of neuronal damage was performed 14 days post-ischemia by counting pyramidal neurons throughout the CA1 layer of the anterior hippocampus in […] thick (paraffin) coronal brain sections stained with hematoxylin and erosin.
Percent Protection values represent the fraction of hippocampi protected from ischemia in a group of animals treated with the stated dose of compound.

Data set [7] has as its system rats. Particulars: rats p.o.
In data set [8] the test system is Mechanically dissociated Neonatal Rat Cerebellum. Description: Reversal of NMDA induced cell death, neonatal rat cerebellum cultures. In kind it is cell-based. Particulars: for SURVIVING CELL IN CULTURE: relative to control (100%); for PERCENT PROTECTION: cell survival minus NMDA effect (30%); for EFFECTIVE PROTECTION: percent protection x 100/70. As for the experimental part: The cerebellum was aseptically dissociated from 6 or 7-day old rat pups and placed in a 15 ml sterile plastic conical tube containing 3 ml of Dulbecco's modified Eagle's medium (DMEM) with a high glucose concentration ([…]) and 2 mM (v/v) L-glutamine and an antibiotic antimitotic mixture. The cerebella were then dissociated after 20-25 passages through a sterile 13 gauge, 10 cm long stainless steel needle attached to a 5 ml syringe with an inserted 45 micrometer pore nylon sieve. The dissociated cells were centrifuged at 200 g for 5 minutes. The supernatant was discarded and the cells resuspended in medium enriched with 15% (v/v) heat inactivated fetal calf serum. Cell viability was determined by the tryptan blue exclusion test.
Cells were plated at a density of 200/mm^2 on poly-L-lysine coated surfaces. Poly-L-lysine coated glass coverslips were prepared at least one hour in advance of plating by immersing sterile coverslips in sterile distilled water solution containing 15 microgram/ml poly-L-lysine, and washing in sterile water just prior to use. The plated cells were covered with enriched medium and incubated at 37° C. in an atmosphere of 5% CO2 in air and 97% humidity. After three days in culture, the media was replaced with media containing the desired test compound. Each test compound was tested in duplicate. Toxic-dose response was determined for each compound.
Four groups were run in each set of experiments;
I. Control, consisting of enriched media alone,
II. N-methyl-D-aspartate (NMDA, 1 mM for 3 hours) as the cytotoxic challenge,
III. Test compound plus NMDA, and
IV. Positive control, spermine(0.01 micromoles) plus NMDA.
Nerve cell survival was evaluated by phase contrast microscopy and tryptan blue staining after 24 hours.
Surviving cells in culture are measured relative to control (100%) as described above. Percent protection is the Cell Survival for the test compound minus the NMDA effect. Thus, maximal protection is 100% minus 30% NMDA effect i.e. 70%. The Effective Protection was calculated as the percent of the Percent Protection (X) divided by the maximal protection value (e.g. X×100/70).

As for `NC(=O)CNC1CCc2ccccc21` (racemic) [Compound 3, (rac)-N-(2-Acetamido)-1-aminoindan.HCl], the “RATS MES 50” value in data set [1] is recorded as under 50 mg/kg. Besides, the “MICE MES ED50” value is on record as under 100 mg/kg in data set [2] and 83 mg/kg in data set [2] (listed as 3*). For the same compound, the “MICE scMet ED50 PI” value is reported as 36 mg/kg in data set [3] and over 130 mg/kg in data set [3] (listed as 3*). Also, the “RATS TD50” value in data set [4] is recorded as over 50 mg/kg. Moreover, the “MICE TD50” value in data set [5] is >100 mg/kg and 126 mg/kg; in data set [5] (listed as 3*) it was 127 mg/kg.
With `NC(=O)CNC1CCc2ccc(F)cc21` (racemic) [Compound 5, (rac)-6-Fluoro-N-(2-acetamido)-1-aminoindan.HCl], the “activity in the MES model in mice, in words” value in data set [2] was “showed activity”. Also, the figures for the “MICE MES ED50” value in data set [2] and in data set [2] (listed as 5*) were under 100 mg/kg and 58 mg/kg, respectively. Moreover, in data set [3], the “MICE scMet ED50 PI” value is over 200 mg/kg. For the same compound, the figures for the “MICE TD50” value in data set [5] and in data set [5] (listed as 5*) were over 300 mg/kg and 138 mg/kg, respectively.
As to `N[C@H]1CCc2ccccc21` [C, (S)-1-aminoindan], the “PERCENT PROTECTION” value in data set [6] (0.1 mg/kg ip) is 0%; in data set [6] (1.0 mg/kg ip) it was 50.0%.
As to `NC(=O)CN[C@@H]1CCc2ccccc21` [Compound 1, (R)-N-(2-Acetamido)-1-aminoindan.HCl], in data set [1], the “RATS MES 50” value was found to be 50 mg/kg. Also, in data set [2], the “MICE MES ED50” value worked out at 77 mg/kg. Moreover, the “MICE scMet ED50 PI” value in data set [3] was over 200 mg/kg. Besides, the “RATS TD50” value in data set [4] is over 50 mg/kg. For the same compound, the “MICE TD50” value in data set [5] is 198 mg/kg.
As to `CN[C@H]1CCc2ccccc21.Cl` [Compound 14, (S)-N-Methyl-1-aminoindan.HCl], the “RATS MES 50” value in data set [1] was 94 mg/kg. Moreover, the “MICE MES ED50” value in data set [2] is under 100 mg/kg. Further, the “RATS TD50” value in data set [4] is over 142 mg/kg. In data set [5], the “MICE TD50” value stood at 100 mg/kg. Also, in data set [7], the “RATS scMet ED50 PI” value was over 71 mg/kg.
With `CC(=O)N[C@H]1CCc2ccccc21` [Compound 19, (S)-N-Acetyl-1-aminoindan], the “PERCENT PROTECTION” value in data set [6] (1.0 mg/kg ip) worked out at 0%.
Regarding `Cl.N[C@@H]1CCc2ccc(O)cc21` [Compound 35, (R)-6-Hydroxy-1-aminoindan.HCl], the “SURVIVING CELL IN CULTURE” value in data set [8] (0.005 μM + NMDA 1 mM 3 hours) stood at 60%; in data set [8] (0.010 μM + NMDA 1 mM 3 hours), 34%; in data set [8] (0.100 μM + NMDA 1 mM 3 hours), 30%. Further, the “PERCENT PROTECTION” value in data set [8] (0.005 μM + NMDA) amounted to 30%; in data set [8] (0.010 μM + NMDA), 4%; in data set [8] (0.100 μM + NMDA), 0%; in data set [6] (0.1 mg/kg ip) it was 25.0%; in data set [6] (1.0 mg/kg ip) it was 37.5%; in data set [6] (10.0 mg/kg ip) it was 37.5%. Moreover, the “EFFECTIVE PROTECTION” value in data set [8] (0.005 μM + NMDA) stood at 43%; in data set [8] (0.010 μM + NMDA), 6%; in data set [8] (0.100 μM + NMDA), 0%.
With `Cl.NC(=O)CN[C@@H]1CCc2ccccc21` [D, (R)-Indanylglycinamide-HCl salt], in data set [2], the “MICE MES ED50” value worked out at 83 mg/kg. Also, the “MICE scMet ED50 PI” value in data set [3] is over 130 mg/kg. In data set [4], the “RATS TD50” value is listed as over 180 mg/kg.
